Data from patent US20110263454A1, “Methods of Identifying Functional Characteristics of Promoters, Transcription Modifying Proteins and Transcription Modulating Agents” (Salk Institute for Biological Studies, priority 2008, published 2011).

Columns and labels:
hTNFa promoter = test: NHR-promoter luciferase screen, hTNFa promoter; format: cell-based, human; settings: for Luc. act., normalized to lacZ / Normalized Luc. act., normalized to control: TNFa promoter, HR component without or with ligand; for hTNFa promoter reporter activity: transcription factor +/- ligand, control = 1.00
Experimental: (§1) The use, feasibility, and reproducibility of the functional NHR-promoter screen in a 48-well format have been tested validated. Briefly, there were co-expressed 50 ng of each NHR/NHR homodimer or NHR/RXR heterodimer with 100 ng promoter/luciferase construct and 50 ng of LacZ (as a control for transfection efficiency) in CV-1 cells using Fugene HD (Roche) as a transfection reagent (alternatively or additionally, a CMV-YFP construct can be used as a transfection control). Each of the nuclear hormone receptors that were used in these experiments was cloned into a pcDNA3.1 vector and comprised a C-terminally linked V5H6 tag. Twenty-four hours after transfection, appropriate ligands were added, where applicable, (see Table 5 for various ligands and concentrations and after 48 hrs, samples were assayed for luciferase and LacZ activity. To measure for luciferase activity 15 ul of sample was added to 30 ul of luciferase buffer (20 mM tricine, 1.07 mM MgCarbonate, 2.67 mM MgSulfate, 0.1 mM Naz-EDTA, 5 mM DTT, 5 mM ATP, 0.15 mg/ml CoA, 0.5 mM Luciferin), mixed briefly, and run in a Perkin Elmer Victor 5 luminometer. Thus, the functional NHR-promoter screen was used to observe the transcriptional activity of 29 promoters from various physiological pathways including inflammation, lipid and sugar metabolism, cholesterol transport, xenobiotic metabolism, and circadian rhythm.
(§2) The promoters that facilitate transcription of the indicated gene products that were tested using the protocols described herein are listed in the first row of the table. The nuclear hormone receptors and, where applicable, ligands that were assayed for their transcriptional effects on the promoters are listed in the first column of the table. The data represent the luciferase activity of each sample normalized to both the lacZ activity of that sample and to a control, e.g., no NHR or ligand, as customary in the art. As described previously, these normalizations allow the transcriptional activity of each reporter cell to be compared to other samples.
(§3) Tables 7-40 show the transcriptional effects of the hormone receptors, and, where applicable, ligands (orphan receptors are screened without ligand), on each individual promoter. […] The control data of each table are shown in their last rows.

mDio1 promoter = test: NHR-promoter luciferase screen, mDio1 promoter; format: cell-based, mouse; settings: for Luc. act., normalized to lacZ / Normalized Luc. act., normalized to control: Dio1, HR component without or with its ligand; for mDio1 promoter reporter activity: transcription factor +/- ligand, control = 1.00
Experimental: as §1, §2, §3

hMDR1 promoter = test: NHR-promoter luciferase screen, hMDR1 promoter; format: cell-based, human; settings: for Luc. act., normalized to lacZ / Normalized Luc. act., normalized to control: MDR1 promoter, HR/ligand component; for hMDR1 promoter reporter activity: transcription factor +/- ligand, control = 1.00
Experimental: as §1, §2, §3

mADRP promoter = test: NHR-promoter luciferase screen, mADRP promoter; format: cell-based, mouse; settings: for Luc. act., normalized to lacZ / Normalized Luc. act., normalized to control: ADRP promoter, HR/ligand component; for mADRP promoter reporter activity: transcription factor +/- ligand, control = 1.00
Experimental: as §1, §2, §3

mAgrp promoter = test: NHR-promoter luciferase screen, mAgrp promoter; format: cell-based, mouse; settings: for Results of assays of transcription factor (+/- ligand) with mAgrp: Table 6d, luciferase activity relative to control (control = 1.00); for Luc. act., normalized to lacZ / Normalized Luc. act., normalized to control: mAgrp promoter, HR component with or without ligand; for Normalized Luc. act., normalized to control: relative to control
Experimental: as §1, §2, §3

hPOMC promoter = test: NHR-promoter luciferase screen, hPOMC promoter; format: cell-based, human; settings: for Luc. act., normalized to lacZ / Normalized Luc. act., normalized to control: hPOMC promoter, HR/ligand component; for hPOMC promoter reporter activity: transcription factor +/- ligand, control = 1.00
Experimental: as §1, §2, §3

Substance | Luc. act., normalized to lacZ (hTNFa promoter) | Normalized Luc. act., normalized to control (hTNFa promoter) | hTNFa promoter reporter activity (hTNFa promoter) | Luc. act., normalized to lacZ (mDio1 promoter) | Normalized Luc. act., normalized to control (mDio1 promoter) | mDio1 promoter reporter activity (mDio1 promoter) | Luc. act., normalized to lacZ (hMDR1 promoter) | Normalized Luc. act., normalized to control (hMDR1 promoter) | hMDR1 promoter reporter activity (hMDR1 promoter) | Luc. act., normalized to lacZ (mADRP promoter) | Normalized Luc. act., normalized to control (mADRP promoter) | mADRP promoter reporter activity (mADRP promoter) | Results of assays of transcription factor (+/- ligand) with mAgrp (mAgrp promoter) | Luc. act., normalized to lacZ (mAgrp promoter) | Normalized Luc. act., normalized to control (mAgrp promoter) | Luc. act., normalized to lacZ (hPOMC promoter) | Normalized Luc. act., normalized to control (hPOMC promoter) | hPOMC promoter reporter activity (hPOMC promoter) | luciferase/LacZ, mAgrp (selected results) (mAgrp promoter; mAgrp promoter-luciferase, NHR +/- ligand, control = 1.0) | luciferase/LacZ, hPOMC (selected results) (hPOMC promoter; hPOMC promoter-luciferase, NHR +/- ligand, control = 1.0)
RXRa: Retinoic X Receptor α (NR2B1), cDNA driver | 954.8 | 1.0 | 0.97 | 5.5 | 1.2 | 1.24 | 0.2 | 0.5 | 0.51 | 783.2 | 1.6 | 1.57 | 1.17 | 46.4 | 1.2 | 2.6 | 0.6 | 0.61 | – | –
NR4a1: NR4a1 (NR4A1; NUR77), nuclear hormone receptor cDNA driver | 1575.8 | 1.6 | 1.60 | 10.9 | 2.4 | 2.45 | 0.4 | 1.3 | 1.29 | 1029.3 | 2.1 | 2.07 | 1.17 | 46.3 | 1.2 | 15.3 | 3.6 | 3.57 | 1.2 | 3.6
TLX: Tailless (homolog of drosophila) (NR2E1), cDNA driver | 1085.1 | 1.1 | 1.10 | 8.4 | 1.9 | 1.88 | 0.2 | 0.7 | 0.70 | 259.2 | 0.5 | 0.52 | 0.82 | 32.4 | 0.8 | 2.6 | 0.6 | 0.60 | – | –
PPARa: Peroxisome proliferator activated receptor α (NR1C1), cDNA driver | 1107.9 | 1.1 | 1.13 | 4.7 | 1.1 | 1.06 | 0.2 | 0.5 | 0.51 | 1497.1 | 3.0 | 3.01 | 1.06 | 42.1 | 1.1 | 2.4 | 0.6 | 0.57 | – | –
